This is an account of results in ChEMBL document CHEMBL2417452, “Psammaplysin F: a unique inhibitor of bacterial chromosomal partitioning” (Bioorg Med Chem Lett, 2013).

The subject of experiment [1] is Staphylococcus aureus. Description: Disruption of plasma membrane integrity in Staphylococcus aureus 1H assessed as extracellular ATP release at 20 uM after 15 to 120 mins by BacTiter-Glo microbial assay relative to control. The class given is functional.
Another experiment relates to Escherichia coli. Nature of the experiment: Antibacterial activity against Escherichia coli assessed as growth inhibition at 50 uM after 5 hrs by BacTiter-Glo microbial assay relative to control. The class given is functional.
The subject of experiment [2] is Enterococcus faecalis. Description: Antibacterial activity against Enterococcus faecalis NCTC 775 assessed as growth inhibition at 50 uM after 5 hrs by BacTiter-Glo microbial assay relative to control. The class given is functional.
For experiment [3], the system named is Staphylococcus aureus. Description: Antibacterial activity against methicillin-resistant Staphylococcus aureus USA-300 assessed as growth inhibition at 50 uM after 5 hrs by BacTiter-Glo microbial assay relative to control. The class given is functional.
Experiment [4] has as its system Bacillus cereus. Description: Antibacterial activity against Bacillus cereus NCTC 7464 assessed as growth inhibition at 50 uM after 5 hrs by BacTiter-Glo microbial assay relative to control. The class given is functional.
For experiment [5], the system named is Staphylococcus aureus. Description: Antibacterial activity against Staphylococcus aureus NCTC 6571 after 20 to 24 hrs by two-fold broth microdilution method. It counts as functional, organism-based. Background: Broth dilution looks for growth in wells or tubes with falling amounts of substance.
A further experiment deals with Pseudomonas aeruginosa. Nature of the experiment: Antibacterial activity against Pseudomonas aeruginosa PAO1 assessed as growth inhibition at 50 uM after 5 hrs by BacTiter-Glo microbial assay relative to control. The class given is functional.
Experiment [6] relates to Enterococcus faecalis. Description: Antibacterial activity against Enterococcus faecalis NCTC 775 after 20 to 24 hrs by two-fold broth microdilution method. It counts as functional, organism-based.
Experiment [7] concerns Bacillus cereus. Nature of the experiment: Antibacterial activity against Bacillus cereus NCTC 7464 after 20 to 24 hrs by two-fold broth microdilution method. The class given is functional, organism-based.
In the next experiment the test system is Salmonella typhimurium. Nature of the experiment: Antibacterial activity against Salmonella typhimurium assessed as growth inhibition at 50 uM after 5 hrs by BacTiter-Glo microbial assay relative to control. It counts as functional. The following applies: Salmonella enterica subsp. enterica serovar Typhimurium.
Experiment [8] relates to Staphylococcus aureus. Description: Antibacterial activity against penicillin-resistant Staphylococcus aureus 1H assessed as growth inhibition at 50 uM after 5 hrs by BacTiter-Glo microbial assay relative to control. The class given is functional.
Experiment [9] deals with Staphylococcus aureus. Description: Antibacterial activity against Staphylococcus aureus NCTC 6571 assessed as growth inhibition at 50 uM after 5 hrs by BacTiter-Glo microbial assay relative to control. The class given is functional.
Experiment [10] concerns Staphylococcus aureus. Description: Antibacterial activity against methicillin-resistant Staphylococcus aureus MW2 assessed as growth inhibition at 50 uM after 5 hrs by BacTiter-Glo microbial assay relative to control. It counts as functional.
Experiment [11] concerns Staphylococcus aureus. Description: Antibacterial activity against methicillin-resistant Staphylococcus aureus MW2 after 20 to 24 hrs by two-fold broth microdilution method. The class given is functional, organism-based.
In the next experiment the test system is Klebsiella pneumoniae. Nature of the experiment: Antibacterial activity against Klebsiella pneumoniae NCIB 8805 assessed as growth inhibition at 50 uM after 5 hrs by BacTiter-Glo microbial assay relative to control. The class given is functional.
Experiment [12] deals with Staphylococcus aureus. Nature of the experiment: Antibacterial activity against methicillin-resistant Staphylococcus aureus USA-300 after 20 to 24 hrs by two-fold broth microdilution method. The class given is functional, organism-based.
For experiment [13], the system named is Staphylococcus aureus. Description: Antibacterial activity against Staphylococcus aureus 1H after 20 to 24 hrs by two-fold broth microdilution method. It counts as functional, organism-based.

On to `COC1=C(Br)C[C@]2(OC=C1Br)ON=C(C(=O)NCCCOc1c(Br)cc(CC[N+](C)(C)C)cc1Br)[C@@H]2O.O=C([O-])C(F)(F)F`, for which the “fold change (FC)” value in the experiment with Staphylococcus aureus [1] is 2.

Regarding GENTAMICIN, the growth inhibition (GI) amounted to 87% in the experiment on Escherichia coli; 77% with Enterococcus faecalis [2]; 90% in the experiment on Staphylococcus aureus [3]; 82% with Bacillus cereus [4]; 86% with Pseudomonas aeruginosa; 82% in the experiment on Salmonella typhimurium. The growth inhibition (GI) with Staphylococcus aureus [8] amounted to 89%; in the experiment on Staphylococcus aureus [9] it was 95%; with Staphylococcus aureus [10], 93%; in the experiment on Klebsiella pneumoniae, 83%. For the same molecule, the MIC – broadly, the smallest concentration in the dilution series that meets the test's criterion for growth inhibition – worked out at 0.8 µM against Staphylococcus aureus [5]; 25 µM against Enterococcus faecalis [6]; 1.6 µM with Bacillus cereus [7]; 1.6 µM against Staphylococcus aureus [11]; 3.1 µM with Staphylococcus aureus [12]; 1.6 µM in the experiment with Staphylococcus aureus [13].
